Several values for one entry are separate records, joined by “and”; a condition that tells them apart may be missing. Equal values may be shown once. Read-outs that look alike come from different tables or passages of the source.
How the values were obtained:
human red blood cells = test: Haemolysis analysis; conditions: human red blood cells, 50 µg/mL, positive control
Protocol: Next, 600 μl of this EDTA-treated blood was washed in TBS buffer (10 mM TRIS, 150 mM NaCl [pH 7.2]) and centrifuged at 1,500 g for 1 minute until the supernatant became colorless. The aliquot of the final pellet (200 μL) was diluted to 5 mL with TBS buffer. […] Next, 100 μL of red blood cell suspension was pipetted into sterile Eppendorf tubes together with 100 μL of 2-fold serial dilution of the compounds (final concentration ranged between 100 μg/mL–0.1 μg/mL in a final volume of 200 μL). The plate was incubated for one hour at 37 °C followed by centrifugation at 1,500 g for 1 minute to sediment all red blood cells. Next, all supernatants were subjected to LDH and Haemolysis-Icterus-Lipaemia (HIL) index determination on a Roche Modular P800 analyzer according to the manufacturer’s instructions. After completion of this step the rest of the supernatants were transferred to sterile 96-well plates for the measurement of their optical density at 560-nm wavelength (in a Multiskan FC microplate reader, Thermo Scientific). Melittin (Bachem) at a concentration of 50 μg/mL, and TBS and 10% DMSO/TBS were served as positive (100% hemolysis) and negative (no hemolysis) controls, respectively.

[1] = biological target: T1, S. aureus topoisomerase IV (Staphylococcus aureus, UniProt P0C1S7); test: S. aureus topoisomerase IV gel-based assay; format: biochemical; conditions: quadruplicates
T1 construct: purchased Inspiralis Ltd., Norwich, UK

[2] = system: S. aureus VISA ATCC 700699 GyrB / ParE mutants; test: MIC of spontaneous resistant mutants (single-step and second-step); format: cell-based; conditions: Staphylococcus aureus
Protocol: MICs were determined using a standard serial broth microdilution technique according to the CLSI guidelines. Briefly, bacterial strains were inoculated onto MHBII agar plates and were grown overnight at 37 °C. Next, 3 individual colonies from each strain were inoculated into 1 mL MHBII medium and propagated at 37 °C, 250 rpm overnight. In the cases of Enterococcus and Streptococcus sp., cells were plated to BHI agar plates, and BHI broth was used to determine MICs. […] Following dilutions, each well was seeded with 5×10^4 bacterial cells. All measurements were performed in 3 parallel replicates and to avoid possible edge effects in microwell plates, side rows (A and H) were filled with sterile medium. Following inoculations, plates were covered with lids and wrapped in polyethylene plastic bags to minimize evaporation but allow for O2 transfer. Plates were incubated at 37 °C under continuous shaking at 150 rpm for 18 hours. After incubation, OD600 of each well was measured using a BioTek Synergy 2 microplate reader.

[3] = system: S. aureus ATCC 700699 VISA; test: Time-dependent killing; format: cell-based; conditions: for Time-kill bacterial count: 10xMIC; for Colony numbers: time-kill raw counts, Samples 1-3
Protocol: Time-dependent killing experiments were performed as previously. S. aureus ATCC 700699 VISA cells were inoculated to MHBII agar plates and grown overnight at 37 °C. Next, 3 independent stationer-phase starter cultures were grown at 37 °C, 250 rpm overnight, in 3 × 1 mL MHBII broth. Next, 100-fold diluted cultures were prepared from each in 20 mL fresh MHBII medium and grown at 37 °C, 250 rpm until early exponential phase (OD600 = 0.3–0.4; i.e., 5 × 10^5 cells/mL). […] Cells were treated with antibiotics in Erlenmeyer flasks at 37 °C, 150 rpm for 48 hours. […] Next, 50 μL from each dilution were plated on MHBII agar plates, and plates were incubated overnight at 37 °C to calculate CFU per mL.

[4] = system: S. aureus ATCC 700699 (VISA); test: microbe, parasite or virus in culture; format: cell-based; conditions: Staphylococcus aureus, read-out: MIC in adapted strains
Protocol: Adaptive laboratory evolution experiments followed an established protocol for automated laboratory evolution and aimed to maximize the drug-resistance increment during a fixed time period. […] Experiments were conducted in 96-well plates, in MHBII medium, by utilizing a checkerboard layout to minimize and monitor cross-contamination. These 96-well deep-well plates (0.5 mL, polypropylene, V-bottom) were covered with sandwich covers (Enzyscreen BV) to ensure an optimal oxygen exchange rate and limit evaporation and were shaken at 150 rpm, 37 °C. […] Following cell transfer, each culture was allowed to grow for 48 hours. At each transfer, cell growth was monitored by measuring the OD600 in a BioTek Synergy 2 plate reader. […] Accordingly, only 1 of the 4 populations was retained for each independently evolving strain. This protocol was designed to avoid population extinction and to ensure that populations with the highest level of resistance are propagated further during adaptive evolution. […] Adaptation of populations was terminated after 20 transfers, i.e., 40 days. Following adaptation, cells from each final population were spread onto MHBII agar plates, and individual colonies were isolated. Next, one colony from each adapted line were subjected to capillary sequencing of gyrB and parE to assess their genotype.

Topoisomerase IV = conditions: high-throughput relaxation assay ref 37; cited from earlier work
[5] = system: S. aureus USA300 (MRSA) BAA1556, S. aureus (VRSA) ECL2963646, S. aureus Mu50 (VISA) ATCC 700699; test: S. aureus dermal infection model; format: in vivo, ICR mice; conditions: 2% treatment, individual animals
Protocol: The testing strains, S. aureus USA300 (MRSA) BAA1556, S. aureus (VRSA) ECL2963646, and S. aureus Mu50 (VISA) ATCC 700699 were obtained from frozen stocks and thawed at room temperature. Next, an aliquot of 0.2 mL from each stock was transferred to 20 mL BHI broth and incubated at 37 °C with shaking (120 rpm) for 8 hours. Cells in 20 mL culture were pelleted by centrifugation, 3,500g for 15 minutes, and then resuspended in 10 mL cold PBS, then cells were diluted in PBS to obtain the inoculum sizes of 1×10^5 or 1× 10^6 CFU/mL, based on the testing strain’s virulence. In all cases, the actual colony counts were determined by plating dilutions in at least 3 replicates onto MHBII agar plates followed by 24 hours’ incubation and colony counting.
For dermal infections, groups of 5 female ICR mice weighing 24 ± 4 g, provided by BioLasco Taiwan (under a Charles River Laboratories Technology Licensee), were used. Animals were acclimated for 3 days prior to use and were confirmed to be in good health. Prior to infection, animals were anesthetized with etomidate-lipuro emulsion (20 mg /10 mL) at 20 mg/kg by IV injection, and then the fur on the back was removed by an electric shaver, and the epidermal layer was disrupted with an abrasive paper according to the protocol developed by Kugelberg and colleagues. Mice were inoculated topically on the wound area with testing strain suspension, 5 μL/mouse. The target inoculation densities were 1×10^5 or 1× 10^6 CFU/mL, based on the corresponding strain’s virulence. Following infection, animals were housed separately. […] Test articles were administered topically (20 μL/mouse) twice daily. One no-treatment group was euthanized at 1 hour after infection for initial bacterial counts, and the other treatment groups were dosed twice daily with the test compounds and sacrificed either at 25 hours or at 73 hours postinfection. Animals were euthanized with CO2 asphyxiation and the infected skin, a 2 cm^2 area, was excised. The skin samples of the wound infection (around 2 cm^2 areas) were then homogenized in 1 mL PBS (pH 7.4) with a polytron homogenizer. A 0.1 mL aliquot of each homogenate was used for serial 10-fold dilutions and plated onto MHBII agar plates for bacterial enumeration. Statistical significance (P <0.05) was assessed with 1-way ANOVA followed by Dunnett’s method. A significant (P <0.05) decrease in the bacterial counts of the treated animals compared with the vehicle control group was considered significant antimicrobial activity.

[6] = cited from earlier work

T1 sequence (P0C1S7 whole entry): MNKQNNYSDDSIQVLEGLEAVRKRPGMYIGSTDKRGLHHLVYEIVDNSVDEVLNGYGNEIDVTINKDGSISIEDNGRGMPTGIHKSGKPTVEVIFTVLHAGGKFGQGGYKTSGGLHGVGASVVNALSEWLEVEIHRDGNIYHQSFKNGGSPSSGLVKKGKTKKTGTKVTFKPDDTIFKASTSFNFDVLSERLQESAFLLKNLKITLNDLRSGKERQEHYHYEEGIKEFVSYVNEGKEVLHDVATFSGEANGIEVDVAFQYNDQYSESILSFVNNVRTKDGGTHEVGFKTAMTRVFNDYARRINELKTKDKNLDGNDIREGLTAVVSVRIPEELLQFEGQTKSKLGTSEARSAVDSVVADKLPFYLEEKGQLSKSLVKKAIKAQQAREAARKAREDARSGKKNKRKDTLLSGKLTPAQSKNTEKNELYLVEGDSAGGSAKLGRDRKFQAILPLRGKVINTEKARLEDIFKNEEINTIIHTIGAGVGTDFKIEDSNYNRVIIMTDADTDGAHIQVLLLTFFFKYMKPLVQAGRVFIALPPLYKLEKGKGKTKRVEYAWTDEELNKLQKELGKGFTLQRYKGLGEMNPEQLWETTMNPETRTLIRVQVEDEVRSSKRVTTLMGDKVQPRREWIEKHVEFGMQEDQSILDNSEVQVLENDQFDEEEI
T1 sequence (P0C1U9 whole entry, further chain): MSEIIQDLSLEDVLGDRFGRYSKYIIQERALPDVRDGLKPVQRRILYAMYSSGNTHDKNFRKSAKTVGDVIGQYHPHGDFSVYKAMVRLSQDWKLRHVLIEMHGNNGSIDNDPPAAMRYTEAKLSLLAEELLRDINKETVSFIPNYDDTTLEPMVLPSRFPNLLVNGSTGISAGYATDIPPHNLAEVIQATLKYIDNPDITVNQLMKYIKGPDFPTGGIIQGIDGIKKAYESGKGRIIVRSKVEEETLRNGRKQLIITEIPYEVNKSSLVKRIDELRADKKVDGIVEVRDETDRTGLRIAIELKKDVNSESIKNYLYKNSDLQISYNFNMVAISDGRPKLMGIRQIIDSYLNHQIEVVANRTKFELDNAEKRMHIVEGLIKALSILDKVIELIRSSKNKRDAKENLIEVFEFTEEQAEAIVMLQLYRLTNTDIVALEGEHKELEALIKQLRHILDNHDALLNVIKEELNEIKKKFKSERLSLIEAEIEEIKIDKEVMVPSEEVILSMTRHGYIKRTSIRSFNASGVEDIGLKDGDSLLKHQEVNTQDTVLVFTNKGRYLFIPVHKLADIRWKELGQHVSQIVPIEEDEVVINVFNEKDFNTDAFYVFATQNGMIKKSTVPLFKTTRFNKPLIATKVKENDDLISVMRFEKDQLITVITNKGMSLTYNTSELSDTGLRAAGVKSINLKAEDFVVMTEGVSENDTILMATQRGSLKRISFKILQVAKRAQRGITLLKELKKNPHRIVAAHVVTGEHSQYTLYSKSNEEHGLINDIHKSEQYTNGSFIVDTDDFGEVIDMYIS

| Molecule | Time-kill bacterial count ([3]; time 0 hour) | Time-kill bacterial count ([3]; time 3 hour) | Time-kill bacterial count ([3]; time 6 hour) | Time-kill bacterial count ([3]; time 12 hour) | Time-kill bacterial count ([3]; time 18 hour) | Time-kill bacterial count ([3]; time 24 hour) | Time-kill bacterial count ([3]; time 48 hour) | Colony numbers ([3]; time 0 h, Dilution 100) | Colony numbers ([3]; time 3 h, Dilution 100) | Colony numbers ([3]; time 6 h, Dilution 100) | Colony numbers ([3]; time 12 h, Dilution 10) | Colony numbers ([3]; time 18 h, Dilution 1) | further results |
| --- | --- | --- | --- | --- | --- | --- | --- | --- | --- | --- | --- | --- | --- |
| Melittin [reference compound] |  |  |  |  |  |  |  |  |  |  |  |  | Hemolytic Index (human red blood cells): 248; LDH activity (human red blood cells): 525 Unit/mL |
| CO[C@@H]1[C@@H](OC(N)=O)[C@@H](O)[C@H](Oc2ccc3c(O)c(NC(=O)c4ccc(O)c(CC=C(C)C)c4)c(=O)oc3c2C)OC1(C)C [Novobiocin] | 2.80E+05 | 9.90E+04 | 4.70E+04 | 5.80E+03 | 1.50E+03 | 8.00E+02 | 6.40E+02 | 145 and 132 and 137 | 63 and 38 and 48 | 21 and 29 | 33 and 23 and 31 | 81 and 65 and 84 | IC50 [1]: 2 µM; MIC ([2]; VISA GyrB I175T): 0.032 µg/mL; MIC ([2]; VISA GyrB R144G): 4 µg/mL; MIC ([2]; VISA GyrB R144I): 8 µg/mL; MIC ([2]; VISA wt, read-out: MIC): 0.05 µg/mL; MIC [4]: 16 µg/mL |
| O=C(O)C(=O)Nc1ccc2nc(NC(=O)c3cc(Br)c(Br)[nH]3)sc2c1 [ULD0] |  |  |  |  |  |  |  |  |  |  |  |  | IC50 (Topoisomerase IV): 10 ± 2 µM |
| CC(=O)O[C@H]1C[C@@]2(C)[C@@H](C[C@@H](O)[C@H]3[C@@]4(C)CC[C@@H](O)[C@@H](C)[C@@H]4CC[C@@]32C)/C1=C(\CCC=C(C)C)C(=O)O [fusidic acid] | 2.80E+05 | 7.80E+04 | 5.60E+04 | 1.40E+04 | 3.40E+03 | 1.40E+03 | 1.70E+04 | 145 and 132 and 137 | 47 and 39 and 31 | 31 and 21 and 32 | 81 and 58 and 73 | 223 and 160 and 130 | Log CFU/Skin ([5]; Staphylococcus aureus USA300 (MRSA)): 4.49 Log CFU/Skin and 5.07 Log CFU/Skin and 4.98 Log CFU/Skin and 4.68 Log CFU/Skin and 3.36 Log CFU/Skin; Colony numbers ([3]; time 24 h, Dilution 0.5): 163 and 86 and 158; regrowth of S. aureus populations ([3]; within 48 hours, 10× MIC, in words): regrowth was observable |
| O=c1ccc2ncc(=O)n3c2n1C[C@H]3CN1CCC(NCc2cc3c(cn2)OCCC3)CC1 [Gepotidacin] |  |  |  |  |  |  |  |  |  |  |  |  | increment in resistance level by combination of 2 specific target mutations [6]: 2,000 fold; resistance level (MIC) of double target mutant [6]: 256 µg/mL |
| C/C(=C\C(=O)OCCCCCCCCC(=O)O)C[C@@H]1OC[C@H](C[C@@H]2O[C@H]2[C@@H](C)[C@H](C)O)[C@@H](O)[C@H]1O [mupirocin, reference compound] |  |  |  |  |  |  |  |  |  |  |  |  | Log CFU/Skin ([5]; Staphylococcus aureus ECL 2963646 (VRSA)): 5.07 Log CFU/Skin and 5.72 Log CFU/Skin and 5.58 Log CFU/Skin and 5.64 Log CFU/Skin and 4.16 Log CFU/Skin; Log CFU/Skin ([5]; Staphylococcus aureus Mu50 ATCC 700699 (VISA)): 3.89 Log CFU/Skin and 4.45 Log CFU/Skin and 5.25 Log CFU/Skin and 3.85 Log CFU/Skin and 4.43 Log CFU/Skin |

Source: PMC7561186, “Rational design of balanced dual-targeting antibiotics with limited resistance” (PLoS Biology, 2020)
